Biological target: IDO1 (Homo sapiens, UniProt P14902)
Experiment: IDO1 Human Whole Blood Assay
Assay type: cell-based
Conditions: WBLD taken as whole blood; read-out: WBLD IC50
Experimental: Compounds to be tested were serially diluted in ten 3-fold steps in DMSO starting from 10 mM. 3 μL of compound dilutions or DMSO alone were then dispensed from the dilution plate into a polypropylene 96-well assay plate containing 97 μL of RPMI medium using an Echo 555 acoustic liquid handler (Labcyte). LPS and IFNγ was prepared in RPMI medium to a 10× of final conc. (1000 ng/mL), final concentration is 100 ng/mL.
Human whole blood was drawn in sodium heparin coated tubes from healthy internal donors. 240 μL of blood was transferred to each of the wells of a v-bottom 96 well plate. 30 μL of compound was transferred from intermediate dilution plate, and incubated for 15 min. 30 μL from stimulants was then transferred to blood and mixed thoroughly. Plate was covered with breathable membrane and incubated at 37° C. for overnight (18 h).
On day 2, isotope labeled standard solutions of kunurenine and tryptophan was made in water at 10× concentration and 30 μL was added to the blood at 3 μM final concentration. The assay plates were centrifuged at 300×G for 10 min with no brake to separate plasma from red blood cells. 60 μL of plasma samples was removed without disturbing red blood cells. Plasma was diluted with RPMI in 1:1 ratio and proteins were precipitated out with two volumes of Acetonitrile. The plates were centrifuged at 4000×G for 60 min. 20 μL of supernatant was carefully transferred to a 384 well plate containing 40 μL of 0.1% formic acid in water and analyzed by LC/MS/MS.
LC/MS/MS analyses were performed using Thermo Fisher's LX4-TSQ Quantum Ultra system. This system consists of four Agilent binary high-performance liquid chromatography (HPLC) pumps and a TSQ Quantum Ultra triple quadrupole MS/MS instrument. For each sample, 5 μL were injected onto an Atlantis T3 column (2.1 mm×150 mm, 3 μm particle size) from Waters. The mobile phase gradient pumped at 0.8 mL/min was used to elute the analytes from the column at 25° C. The elution started at 0% B increasing linearly to 25% B at 6.5 min, holding at 25% for 1 min, re-equilibrating to 10 min. Mobile phase A consisted of 0.1% formic acid in water. Mobile phase B consisted of 0.1% of formic acid in acetonitrile. Data were acquired in positive mode using a HESI interface. The operational parameters for the TSQ Quantum Ultra instrument were a spray voltage of 4000 V, capillary temperature of 380° C., vaporizer temperature 400° C., shealth gas 60 arbitrary units, Aux gas 20 arbitrary units, tube lens 85 and collision gas 1.2 mTorr. SRM chromatograms of kynurenine (Q1: 209.2>Q3:94.0) and internal standard (Q1: 215.3>Q3:98.2) were collected for 90 sec. The peak area was integrated by Xcalibur Quan software. The ratios between the kynurenine generated in the reaction and 2D6-Kynurenine spiked-in internal standard were used to generate percentage inhibition and IC50 values. Compounds were titrated and IC50's were calculated by 4 parameter sigmoidal curve fitting formula.

IDO1, sequence (P14902 whole entry): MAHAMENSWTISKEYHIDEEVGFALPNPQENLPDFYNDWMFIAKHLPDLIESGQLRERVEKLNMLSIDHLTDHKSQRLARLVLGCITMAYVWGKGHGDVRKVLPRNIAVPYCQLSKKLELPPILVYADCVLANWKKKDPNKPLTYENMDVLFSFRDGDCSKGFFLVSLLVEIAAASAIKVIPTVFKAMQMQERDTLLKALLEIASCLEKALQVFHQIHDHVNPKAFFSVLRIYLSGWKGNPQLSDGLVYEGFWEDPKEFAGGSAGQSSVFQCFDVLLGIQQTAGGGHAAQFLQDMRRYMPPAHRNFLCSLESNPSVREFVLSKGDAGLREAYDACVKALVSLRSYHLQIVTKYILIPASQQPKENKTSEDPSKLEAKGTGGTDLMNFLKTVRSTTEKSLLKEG

Row | Structure (SMILES) | IC50
1 | C[C@@H]1C[C@H](Oc2ccccc2Cl)CCN1C(=O)Cn1nc(C(=O)N2CC[C@@H](O)[C@@H](F)C2)c2c1C[C@H]1C[C@@H]21 [Example 52, 1-((2R,4R)-4-(2-chlorophenoxy)-2-methylpiperidin-1-yl)-2-((3bR,4aR)-3-((3S,4R)-3-fluoro-4-hydroxypiperidine-1-carbonyl)-3b,4,4a,5-tetrahydro-1H-cyclopropa[3,4]cyclopenta[1,2-c]pyrazol-1-yl)ethanone] | 101 nM
2 | C[C@@H]1CN(C(=O)c2nn(CC(=O)N3CCC(Oc4cc(F)ccc4Cl)CC3)c3c2CCC3)C[C@H](C)O1 [Example 133, 1-[4-(2-chloro-5-fluorophenoxy)piperidin-1-yl]-2-{3-[(2R,6S)-2,6-dimethylmorpholine-4-carbonyl]-5,6-dihydrocyclopenta[c]pyrazol-1(4H)-yl}ethan-1-one] | 150 nM
3 | Cc1ccccc1OC1CCN(C(=O)Cn2nc(C(=O)N3CCN(C(=O)CO)CC3)c3c2CCCC3)CC1 [Example 38, 2-hydroxy-1-(4-(1-(2-oxo-2-(4-(o-tolyloxy)piperidin-1-yl)ethyl)-4,5,6,7-tetrahydro-1H-indazole-3-carbonyl)piperazin-1-yl)ethanone] | 33 nM
4 | Cc1ccccc1OC1CCN(C(=O)Cn2nc(C(=O)N3CCC(O)CC3)c3c2CCC3)CC1 [Example 33, 2-(3-(4-hydroxypiperidine-1-carbonyl)-5,6-dihydrocyclopenta[c]pyrazol-1(4H)-yl)-1-(4-(o-tolyloxy)piperidin-1-yl)ethanone] | 85.9 nM
5 | Cc1c(F)cccc1OC1CCN(C(=O)Cn2nc(C(=O)N3C[C@@H](C)O[C@@H](C)C3)c3c2CCC3)CC1 [Example 128, 2-{3-[(2R,6S)-2,6-dimethylmorpholine-4-carbonyl]-5,6-dihydrocyclopenta[c]pyrazol-1(4H)-yl}-1-[4-(3-fluoro-2-methylphenoxy)piperidin-1-yl]ethan-1-one] | 49.2 nM
6 | C[C@@H]1CN(C(=O)c2nn(CC(=O)N3CCC(Oc4ccc(Cl)c5c4CCC5)CC3)c3c2CCC3)C[C@H](C)O1 [Example 129, 1-{4-[(7-chloro-2,3-dihydro-1H-inden-4-yl)oxy]piperidin-1-yl}-2-{3-[(2R,6S)-2,6-dimethylmorpholine-4-carbonyl]-5,6-dihydrocyclopenta[c]pyrazol-1(4H)-yl}ethan-1-one] | 3320 nM
7 | Cc1ccccc1NC1CCN(C(=O)Cn2nc(C(=O)N3CCC(F)(CO)CC3)c3c2C[C@H]2C[C@@H]32)CC1 [Example 176, 2-((3bR,4aR)-3-(4-Fluoro-4-(hydroxymethyl)piperidine-1-carbonyl)-3b,4,4a,5-tetrahydro-1H-cyclopropa[3,4]cyclopenta[1,2-c]pyrazol-1-yl)-1-(4-(o-tolylamino)piperidin-1-yl)ethan-1-one] | 396 nM
8 | CC(=O)NC1CCN(C(=O)c2nn(CC(=O)N3CCC(Oc4ccccc4C)CC3)c3c2CCCC3)CC1 [Example 24, N-(1-(1-(2-oxo-2-(4-(o-tolyloxy)piperidin-1-yl)ethyl)-4,5,6,7-tetrahydro-1H-indazole-3-carbonyl)piperidin-4-yl)acetamide] | 314 nM
9 | Cc1cccc(F)c1OC1CCN(C(=O)Cn2nc(C(=O)N3C[C@@H](C)O[C@@H](C)C3)c3c2CCC3)CC1 [Example 138, 2-{3-[(2R,6S)-2,6-dimethylmorpholine-4-carbonyl]-5,6-dihydrocyclopenta[c]pyrazol-1(4H)-yl}-1-[4-(2-fluoro-6-methylphenoxy)piperidin-1-yl]ethan-1-one] | 241 nM
10 | O=C(c1nn(CC(=O)N2CCC(Oc3ccccc3Cl)C3CC32)c2c1[C@@H]1C[C@@H]1C2)N1CCC(OCCO)CC1 (single isomer, unassigned) [Example 171] | 150 nM
11 | Cc1ccccc1OC1CCN(C(=O)Cn2nc(C(=O)N3CCN(C(=O)CO)CC3)c3c2C[C@H]2C[C@@H]32)CC1 [Example 2, 2-Hydroxy-1-(4-((3bR,4aR)-1-(2-oxo-2-(4-(o-tolyloxy)piperidin-1-yl)ethyl)-3b,4,4a,5-tetrahydro-1H-cyclopropa[3,4]cyclopenta[1,2-c]pyrazole-3-carbonyl)piperazin-1-yl)ethanone] | 13 nM
12 | Cc1ccccc1OC1CCN(C(=O)Cn2nc(C(=O)N3CCC(O)(CF)CC3)c3c2CCCC3)CC1 [Example 26, 2-(3-(4-(fluoromethyl)-4-hydroxypiperidine-1-carbonyl)-4,5,6,7-tetrahydro-1H-indazol-1-yl)-1-(4-(o-tolyloxy)piperidin-1-yl)ethanone] | 93.8 nM
13 | Cc1ccccc1OC1CCN(C(=O)Cn2nc(C(=O)N3CC[C@H](O)[C@H](F)C3)c3c2C[C@H]2C[C@@H]32)CC1 [Example 16, 2-((3bR,4aR)-3-((3R,4S)-3-fluoro-4-hydroxypiperidine-1-carbonyl)-3b,4,4a,5-tetrahydro-1H-cyclopropa[3,4]cyclopenta[1,2-c]pyrazol-1-yl)-1-(4-(o-tolyloxy)piperidin-1-yl)ethanone] | 46.7 nM
14 | Cc1ccccc1OC1CCN(C(=O)Cn2nc(C(=O)N3CC[C@H](O)[C@@H](F)C3)c3c2CCCC3)CC1 [Example 23, 2-(3-((3S,4S)-3-fluoro-4-hydroxypiperidine-1-carbonyl)-4,5,6,7-tetrahydro-1H-indazol-1-yl)-1-(4-(o-tolyloxy)piperidin-1-yl)ethanone] | 22.9 nM
15 | Cc1cc(F)ccc1OC1CCN(C(=O)Cn2nc(C(=O)N3CCC(F)(CO)CC3)c3c2CCCC3)CC1 [Example 78, 2-[3-[4-fluoro-4-(hydroxymethyl)piperidine-1-carbonyl]-4,5,6,7-tetrahydroindazol-1-yl]-1-[4-(4-fluoro-2-methyl-phenoxy)-1-piperidyl]ethanone] | 19.7 nM
16 | Cc1cc(F)ccc1OC1CCN(C(=O)Cn2nc(C(=O)N3CCO[C@H](CO)C3)c3c2CCCC3)CC1 [Example 81, 1-[4-(4-fluoro-2-methyl-phenoxy)-1-piperidyl]-2-[3-[(2S)-2-(hydroxymethyl)morpholine-4-carbonyl]-4,5,6,7-tetrahydroindazol-1-yl]ethanone] | 89.8 nM
17 | Cc1cc(F)ccc1OC1CCN(C(=O)Cn2nc(C(=O)N3CC[C@H](O)[C@H](F)C3)c3c2CCCC3)CC1 (racemic) [Example 77, 1-[4-(4-fluoro-2-methyl-phenoxy)-1-piperidyl]-2-[3-[rac-(3R,4S)-3-fluoro-4-hydroxy-piperidine-1-carbonyl]-4,5,6,7-tetrahydroindazol-1-yl]ethanone] | 267 nM
18 | CC(=O)NC1CCN(C(=O)c2nn(CC(=O)N3CCC(Oc4ccccc4Cl)CC3)c3c2CCCC3)CC1 [Example 6, N-(1-(1-(2-(4-(2-chlorophenoxy)piperidin-1-yl)-2-oxoethyl)-4,5,6,7-tetrahydro-1H-indazole-3-carbonyl)piperidin-4-yl)acetamide] | 596 nM
19 | Cc1ccccc1OC1CCN(C(=O)Cn2nc(C(=O)N3CC[C@@H](O)[C@@H](F)C3)c3c2CCCC3)CC1 [Example 36, 2-(3-((3S,4R)-3-fluoro-4-hydroxypiperidine-1-carbonyl)-4,5,6,7-tetrahydro-1H-indazol-1-yl)-1-(4-(o-tolyloxy)piperidin-1-yl)ethanone] | 108 nM
20 | Cc1ccccc1OC1CCN(C(=O)Cn2nc(C(=O)N3CCC(O)CC3)c3c2C[C@H]2C[C@@H]32)CC1 [Example 21, 2-((3bR,4aR)-3-(4-hydroxypiperidine-1-carbonyl)-3b,4,4a,5-tetrahydro-1H-cyclopropa[3,4]cyclopenta[1,2-c]pyrazol-1-yl)-1-(4-(o-tolyloxy)piperidin-1-yl)ethanone] | 40.2 nM
21 | C[C@@H]1C[C@H](Oc2ncccc2C(F)(F)F)CCN1C(=O)Cn1nc(C(=O)N2CCC(OCCO)CC2)c2c1C[C@H]1C[C@@H]21 [Example 8, 2-((3bR,4aR)-3-(4-(2-hydroxyethoxy)piperidine-1-carbonyl)-3b,4,4a,5-tetrahydro-1H-cyclopropa[3,4]cyclopenta[1,2-c]pyrazol-1-yl)-1-((2R,4R)-2-methyl-4-((3-(trifluoromethyl)pyridin-2-yl)oxy)piperidin-1-yl)ethanone] | 212 nM

— US12576087B2, “Aryloxypiperidine pyrazole compounds as indoleamine 2,3-dioxygenase inhibitors” (Merck Sharp & Dohme LLC, priority 2018, dated 2026)
